From ChEMBL document CHEMBL1151066, “Inhibitors of MMP-1: an examination of P1 C gem-disubstitution in the N-carboxyalkylamine and glutaramide carboxylate series” (Bioorg Med Chem Lett, 1996)

molecular target: T1, Interstitial collagenase (Homo sapiens, UniProt P03956); assay: Inhibitory activity against Matrix Metallo Proteinase-1 (MMP-1)
T1 sequence (P03956 whole entry): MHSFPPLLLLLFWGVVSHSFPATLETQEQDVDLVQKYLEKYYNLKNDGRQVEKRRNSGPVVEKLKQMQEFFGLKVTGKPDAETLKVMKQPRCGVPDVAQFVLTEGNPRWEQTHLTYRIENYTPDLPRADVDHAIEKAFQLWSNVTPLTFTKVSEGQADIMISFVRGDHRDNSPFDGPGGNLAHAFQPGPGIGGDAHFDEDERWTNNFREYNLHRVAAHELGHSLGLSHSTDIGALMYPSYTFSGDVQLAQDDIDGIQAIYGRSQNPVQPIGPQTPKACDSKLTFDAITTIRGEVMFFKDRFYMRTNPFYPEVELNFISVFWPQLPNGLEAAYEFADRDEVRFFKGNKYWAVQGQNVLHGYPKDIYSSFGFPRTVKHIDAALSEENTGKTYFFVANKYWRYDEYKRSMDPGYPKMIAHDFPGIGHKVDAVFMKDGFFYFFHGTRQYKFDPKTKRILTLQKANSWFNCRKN

Compound	IC50
CCC(CC1(C(=O)N[C@@H](Cc2ccc(OC)cc2)C(=O)NC)CCCCC1)C(=O)O (mixture of isomers)	> 30000 nM
CNC(=O)[C@H](Cc1ccc(OC)cc1)NC(=O)C1(CC(CCN2C(=O)c3ccccc3C2=O)C(=O)O)CCCCC1 (mixture of isomers)	3200 nM
O=C(O)C(CCN1C(=O)c2cc3ccccc3cc2C1=O)CC1(C(=O)NCc2ccccc2)CCCCC1 (racemic)	3000 nM
CNC(=O)[C@H](Cc1ccc(OC)cc1)NC(=O)C1(CC(CCN2C(=O)c3cc4ccccc4cc3C2=O)C(=O)O)CCCC1 (stereo in doubt; form 1)	940 nM
CNC(=O)[C@H](Cc1ccc(OC)cc1)NC(=O)C1(NC(CCN2C(=O)c3cc4ccccc4cc3C2=O)C(=O)O)CCCCC1 (stereo in doubt; form 1)	970 nM
O=C(O)C(CCN1C(=O)c2cc3ccccc3cc2C1=O)CC1(C(=O)NCCN2CCOCC2)CCCCC1 (racemic)	12000 nM

These reach a lower IC50. Values come first.

IC50	Compound
570 nM	CNC(=O)[C@H](Cc1ccc(OC)cc1)NC(=O)C1(CC(CCN2C(=O)c3ccc(OC)cc3C2=O)C(=O)O)CCCCC1 (mixture of isomers)
260 nM	CNC(=O)[C@H](Cc1ccc(OC)cc1)NC(=O)C1(CC(CCN2C(=O)c3cc4ccccc4cc3C2=O)C(=O)O)CCCC1 (stereo in doubt; form 2)
140 nM	CCCOc1ccc2c(c1)C(=O)N(CCC(CC1(C(=O)N[C@@H](Cc3ccc(OC)cc3)C(=O)NC)CCCCC1)C(=O)O)C2=O (mixture of isomers)
140 nM	CNC(=O)[C@H](Cc1ccc(OC)cc1)NC(=O)C1(CC(CCN2C(=O)c3cc4ccccc4cc3C2=O)C(=O)O)CCCCC1 (stereo in doubt; form 2)
90 nM	CNC(=O)[C@H](Cc1ccc(OC)cc1)NC(=O)C1(NC(CCN2C(=O)c3cc4ccccc4cc3C2=O)C(=O)O)CCCCC1 (stereo in doubt; form 2)
38 nM	CNC(=O)[C@H](Cc1ccc(OC)cc1)NC(=O)C1(CC(CCN2C(=O)c3cc4ccccc4cc3C2=O)C(=O)O)CCCCC1 (stereo in doubt; form 1)
34 nM	CNC(=O)[C@H](Cc1ccccc1)NC(=O)[C@H](CC(C)C)N[C@H](CCN1C(=O)c2cc3ccccc3cc2C1=O)C(=O)O
23 nM	CNC(=O)[C@H](Cc1ccc(OC)cc1)NC(=O)[C@H](CC(C)C)N[C@H](CCN1C(=O)c2cc3ccccc3cc2C1=O)C(=O)O
23 nM	CNC(=O)[C@H](Cc1ccc(OC)cc1)NC(=O)[C@H](CC(C)C)C[C@@H](CCN1C(=O)c2cc3ccccc3cc2C1=O)C(=O)O
